Experimental data from patent US20240109853A1 (Shanghai Yao Yuan Biotechnology Co., Ltd., priority 2020, published 2024).
Counter-ions that a name gives are not always drawn. Like-named read-outs stand apart in the source and are kept apart here.

What was measured:
ALPK1 = ALPK1 (Homo sapiens (Human), UniProt Q96QP1); experiment: ALPK1 in vitro kinase assay (HTRF of TIFA phosphorylation); format: biochemical
[1] = test system: ALPK1-dependent NFκB reporter gene activation in HEK293 cells stably expressing an NF-kB reporter (G9 cells); experiment: NFκB gene reporter alkaline phosphatase assay; format: cell-based; conditions: read-out: NFkB assay IC50
Text: In embodiments, a compound of Formula I, or a subembodiment described herein, is an inhibitor of ALPK1 as measured, for example, in an in vitro kinase assay, or an assay designed to measure the activation of downstream targets of ALPK1 pathway activation, for example NFkB transcriptional activation and the secretion of proinflammatory cytokines and chemokines, such as IL-8, which is also referred to as CXCL-8. In general, the computer program XL fit was used for data analysis, including non-linear regression analysis. The half maximal inhibitory concentration (IC50) was used as the measure of a compound's effectiveness in the assays. IC50 values were determined using the following logistic equation Y=min+(max−min)/(1+(X/IC50^−hillslpoe), where Y is the value at the compound concentration, X. The concentration response curve fitting was conducted using GraphPad Prism version 6.00 software.
An alkaline phosphatase reporter assay system was used to measure inhibition of ALPK1-dependent NFκB reporter gene activation. Briefly, HEK293 cells stably expressing an NF-kB reporter (referred to herein as “G9 cells”) were maintained in DMEM as described above. For the assay, cells were seeded into 96-well plates at a density of 10,000 cells/well in Freestyle™ 293 Expression Medium (ThermoFisher), and allowed to attach overnight. Cells were pretreated with serially diluted compounds for 30 min and then stimulated with D-glycero-D-manno-6-fluoro-heptose-1β-S-ADP. […] NFkB gene activation was detected using the chromogenic substrate, para-nitrophenyl phosphate (pNPP) according to the manufacturer's protocols (pNPP Phosphatase Assay, Beyotime Biotechnology).

[2] = ALPK1 2 nM, TIFA substrate, ADP-Heptose activator, HTRF readout

ALPK1, sequence (Q96QP1 whole entry): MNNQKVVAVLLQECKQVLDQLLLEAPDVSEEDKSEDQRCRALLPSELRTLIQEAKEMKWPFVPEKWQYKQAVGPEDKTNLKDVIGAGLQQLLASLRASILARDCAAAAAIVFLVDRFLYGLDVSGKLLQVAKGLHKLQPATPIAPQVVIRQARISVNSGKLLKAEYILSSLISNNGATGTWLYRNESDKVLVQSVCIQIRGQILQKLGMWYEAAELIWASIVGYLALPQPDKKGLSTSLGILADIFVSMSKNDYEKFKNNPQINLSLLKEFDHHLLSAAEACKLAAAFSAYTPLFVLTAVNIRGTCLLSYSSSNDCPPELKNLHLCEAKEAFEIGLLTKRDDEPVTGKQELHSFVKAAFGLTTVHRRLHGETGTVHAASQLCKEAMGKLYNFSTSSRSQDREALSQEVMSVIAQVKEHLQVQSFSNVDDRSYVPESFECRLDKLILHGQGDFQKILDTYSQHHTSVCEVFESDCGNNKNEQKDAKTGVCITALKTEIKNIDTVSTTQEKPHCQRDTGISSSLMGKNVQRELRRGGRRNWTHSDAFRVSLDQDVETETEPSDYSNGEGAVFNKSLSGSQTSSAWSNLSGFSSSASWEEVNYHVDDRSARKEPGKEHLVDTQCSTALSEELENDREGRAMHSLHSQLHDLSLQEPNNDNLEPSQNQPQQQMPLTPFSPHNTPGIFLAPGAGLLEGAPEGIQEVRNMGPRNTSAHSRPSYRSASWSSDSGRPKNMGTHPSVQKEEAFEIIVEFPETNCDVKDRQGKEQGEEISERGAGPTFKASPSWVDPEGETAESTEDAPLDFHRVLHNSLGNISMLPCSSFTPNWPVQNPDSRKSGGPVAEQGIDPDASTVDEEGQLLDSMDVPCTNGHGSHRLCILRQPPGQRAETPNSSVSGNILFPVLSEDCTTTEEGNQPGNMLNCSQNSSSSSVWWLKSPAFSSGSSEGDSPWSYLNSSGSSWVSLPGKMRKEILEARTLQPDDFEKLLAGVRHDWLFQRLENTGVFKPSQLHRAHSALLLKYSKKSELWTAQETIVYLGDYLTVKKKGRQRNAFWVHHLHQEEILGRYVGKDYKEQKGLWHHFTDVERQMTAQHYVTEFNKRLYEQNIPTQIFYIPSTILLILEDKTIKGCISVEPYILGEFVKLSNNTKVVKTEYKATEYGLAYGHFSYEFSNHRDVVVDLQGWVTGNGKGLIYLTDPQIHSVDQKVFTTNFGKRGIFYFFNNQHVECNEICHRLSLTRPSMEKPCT

Row | Structure (SMILES) | IC50 (ALPK1) [nM] | IC50 ([1]; Homo sapiens, HEK293) [nM] | IC50 [1] [nM] | IC50 (ALPK1; [2]) [nM]
1 | C#CC(C)(c1ccc(Br)cc1)c1csc(NC(N)=O)n1 (stereo in doubt) [Example A163, (S)-1-(4-(2-(4-bromophenyl)but-3-yn-2-yl)thiazol-2-yl)urea] | 4 | 350 | – | –
2 | C#CC(C)(c1ccc(Br)cc1)c1csc(NC(N)=O)n1 (stereo in doubt) [Example A164, (R)-1-(4-(2-(4-bromophenyl)but-3-yn-2-yl)thiazol-2-yl)urea] | 17 | 590 | – | –
3 | C#C[C@](C)(c1ccc(Br)cc1)c1csc(NC(=O)NCC(O)CO)n1 (stereo in doubt) [Example A277, 1-(4-(2-(4-bromophenyl)but-3-yn-2-yl)thiazol-2-yl)-3-(2,3-dihydroxypropyl)urea] | 2670 | 1230 | – | –
4 | C#C[C@@](C)(c1ccc(Br)cc1)c1csc(NC(=O)NCC(O)CO)n1 (stereo in doubt) [Example A278, 1-(4-(2-(4-bromophenyl)but-3-yn-2-yl)thiazol-2-yl)-3-(2,3-dihydroxypropyl)urea] | 624 | 520 | – | –
5 | C#C[C@](C)(c1ccc(Cl)cc1)c1csc(NC(=O)N2CCc3cc(N4CCNCC4)ccc3C2)n1 (stereo in doubt) [Example A280, N-(4-(2-(4-chlorophenyl)but-3-yn-2-yl)thiazol-2-yl)-6-(piperazin-1-yl)-3,4-dihydroisoquinoline-2(1H)-carboxamide] | – | 2180 | – | –
6 | C#C[C@](C)(c1ccc(F)cc1)c1csc(NC(=O)NCCO)n1 (stereo in doubt) [Example A282, 1-(4-(2-(4-fluorophenyl)but-3-yn-2-yl)thiazol-2-yl)-3-(2-hydroxyethyl)urea] | 2150 | 7720 | – | –
7 | C#C[C@](C)(c1ccc(Cl)cc1)c1csc(NC(=O)NCC2(O)CNC2)n1 (stereo in doubt) [Example A286, 1-(4-(2-(4-chlorophenyl)but-3-yn-2-yl)thiazol-2-yl)-3-((3-hydroxyazetidin-3-yl)methyl)urea] | 495 | 15400 | – | –
8 | C#C[C@@](C)(c1ccc(Cl)cc1)c1csc(NC(=O)NCC2(O)CNC2)n1 (stereo in doubt) [Example A287, 1-(4-(2-(4-chlorophenyl)but-3-yn-2-yl)thiazol-2-yl)-3-((3-hydroxyazetidin-3-yl)methyl)urea] | 130 | 4400 | – | –
9 | C#C[C@](C)(c1ccc(Cl)cc1)c1csc(NC(=O)N2CC(CN3CCNCC3)C2)n1 (stereo in doubt) [Example A291, N-(4-(2-(4-chlorophenyl)but-3-yn-2-yl)thiazol-2-yl)-3-(piperazin-1-ylmethyl)azetidine-1-carboxamide] | 109 | 1650 | – | –
10 | C#C[C@](C)(c1ccc(Cl)cc1)c1csc(NC(=O)NC(C)(C)CO)n1 (stereo in doubt) [Example A293, 1-(4-(2-(4-chlorophenyl)but-3-yn-2-yl)thiazol-2-yl)-3-(1-hydroxy-2-methylpropan-2-yl)urea] | 9360 | 8110 | – | –
11 | C#C[C@@](C)(c1ccc(Cl)cc1)c1csc(NC(=O)NC(C)(C)CO)n1 (stereo in doubt) [Example A294, 1-(4-(2-(4-chlorophenyl)but-3-yn-2-yl)thiazol-2-yl)-3-(1-hydroxy-2-methylpropan-2-yl)urea] | 285 | 3040 | – | –
12 | C#C[C@](C)(c1ccc(Cl)cc1)c1csc(NC(=O)NC(CO)CO)n1 (stereo in doubt) [Example A297, 1-(4-(2-(4-chlorophenyl)but-3-yn-2-yl)thiazol-2-yl)-3-(1,3-dihydroxypropan-2-yl)urea] | 935 | 4390 | – | –
13 | C#C[C@@](C)(c1ccc(Cl)cc1)c1csc(NC(=O)NC(CO)CO)n1 (stereo in doubt) [Example A298, 1-(4-(2-(4-chlorophenyl)but-3-yn-2-yl)thiazol-2-yl)-3-(1,3-dihydroxypropan-2-yl)urea] | 246 | 1150 | – | –
14 | C#C[C@](C)(c1ccc(Br)cc1)c1csc(NC(=O)NCC(C)(C)O)n1 (stereo in doubt) [Example A305, 1-[4-[1-(4-bromophenyl)-1-methyl-prop-2-ynyl]thiazol-2-yl]-3-(2-hydroxy-2-methyl-propyl)urea] | 167 | 2690 | – | –
15 | C#C[C@@](C)(c1ccc(Br)cc1)c1csc(NC(=O)NCC(C)(C)O)n1 (stereo in doubt) [Example A306, 1-[4-[1-(4-bromophenyl)-1-methyl-prop-2-ynyl]thiazol-2-yl]-3-(2-hydroxy-2-methyl-propyl)urea] | 56 | 830 | – | –
16 | C#C[C@](C)(c1ccc(Cl)cc1)c1csc(NC(=O)NCC(C)O)n1 (stereo in doubt) [Example A318, 1-(4-(2-(4-chlorophenyl)but-3-yn-2-yl)thiazol-2-yl)-3-(2-hydroxypropyl)urea] | – | – | 2240 | –

Row | Structure (SMILES) | IC50 (ALPK1) [nM] | IC50 ([1]; Homo sapiens, HEK293) [nM] | IC50 [1] [nM] | IC50 (ALPK1; [2]) [nM]
17 | CC(C)(c1ccc(Br)cc1)c1csc(NC(=O)NCc2cccc(N3CCNCC3)c2)n1 [Example A005, 1-(4-(2-(4-bromophenyl)propan-2-yl)thiazol-2-yl)-3-(3-(piperazin-1-yl)benzyl)urea] | – | 1150 | – | –
18 | CC(C)(c1ccc(Br)cc1)c1csc(NC(=O)NCc2ccc(N3CCNCC3)c(Br)c2)n1 [Example A097, 1-(3-bromo-4-(piperazin-1-yl)benzyl)-3-(4-(2-(4-bromophenyl)propan-2-yl)thiazol-2-yl)urea] | – | 1420 | – | –
19 | COc1ccc(C(C)(C)c2csc(NC(=O)NCCCCNc3ccccc3)n2)cc1 [Example A147, 1-(4-(2-(4-methoxyphenyl)propan-2-yl)thiazol-2-yl)-3-(4-(phenylamino)butyl)urea] | – | 1910 | – | –
20 | COc1ccc(C(C)(C)c2csc(NC(=O)NCc3cc(F)c(C4CCNCC4)c(F)c3)n2)cc1 [Example A151, 1-(3,5-difluoro-4-(piperidin-4-yl)benzyl)-3-(4-(2-(4-methoxyphenyl)propan-2-yl)thiazol-2-yl)urea hydrochloride] | – | 950 | – | –
21 | CC(C)(c1ccc(I)cc1)c1csc(NC(=O)NCc2cnc(N3CCNCC3)nc2)n1 [Example A178, 1-(4-(2-(4-iodophenyl)propan-2-yl)thiazol-2-yl)-3-((2-(piperazin-1-yl)pyrimidin-5-yl)methyl)urea] | – | 920 | – | –
22 | CC(C)(c1ccc(Br)cc1)c1csc(NC(=O)NCc2ccc(C3CCNCC3)c(F)c2)n1 [Example A222, 1-(4-(2-(4-bromophenyl)propan-2-yl)thiazol-2-yl)-3-(3-fluoro-4-(piperidin-4-yl)benzyl)urea] | – | 930 | – | –
23 | C#CC(C)(c1ccc(OC)cc1)c1csc(NC(=O)NC(C)c2ccc(N3CCNCC3)cc2)n1 (stereo not drawn) [Example A234, 1-(4-(2-(4-methoxyphenyl)but-3-yn-2-yl)thiazol-2-yl)-3-(1-(4-(piperazin-1-yl)phenyl)ethyl)urea] | – | 2670 | – | –
24 | COc1ccc(C(C)(CO)c2csc(NC(=O)NC(C)c3ccc(N4CCNCC4)cc3)n2)cc1 (stereo not drawn) [Example A235, 1-(4-(1-hydroxy-2-(4-methoxyphenyl)propan-2-yl)thiazol-2-yl)-3-(1-(4-(piperazin-1-yl)phenyl)ethyl)urea] | – | 27000 | – | –
25 | C#CC(C)(c1ccc(Br)cc1)c1csc(NC(=O)NCCN2CCNCC2)n1 (stereo not drawn) [Example A239, 1-(4-(2-(4-bromophenyl)but-3-yn-2-yl)thiazol-2-yl)-3-(2-(piperazin-1-yl)ethyl)urea] | – | 850 | – | –
26 | C#C[C@@](C)(c1ccc(Cl)cc1)c1nc(NC(=O)NCCO)sc1Cl [Example A247, (S)-1-(5-chloro-4-(2-(4-chlorophenyl)but-3-yn-2-yl)thiazol-2-yl)-3-(2-hydroxyethyl)urea] | – | 1850 | – | –
27 | C#C[C@](C)(c1ccc(Cl)cc1)c1nc(NC(=O)NCCO)sc1Cl [Example A248, (R)-1-(5-chloro-4-(2-(4-chlorophenyl)but-3-yn-2-yl)thiazol-2-yl)-3-(2-hydroxyethyl)urea] | – | 2730 | – | –
28 | C#C[C@@](C)(c1ccc(Cl)cc1)c1csc(NC(=O)N2CCc3cc(N4CCNCC4)ccc3C2)n1 [Example A260, (S)-N-(4-(2-(4-chlorophenyl)but-3-yn-2-yl)thiazol-2-yl)-6-(piperazin-1-yl)-3,4-dihydroisoquinoline-2(1H)-carboxamide] | – | 1080 | – | –
29 | C#C[C@@](C)(c1ccc(Cl)cc1)c1csc(NC(=O)N2CCc3cc(N4CCNCC4)ccc3C2)n1 [Example A281, N-(4-(2-(4-chlorophenyl)but-3-yn-2-yl)thiazol-2-yl)-6-(piperazin-1-l)-3,4-dihydroisoquinoline-2(1H)-carboxamide] | – | – | 860 | –
30 | C#CC(C)(c1ccc(Br)cc1)c1csc(NC(=O)C2CC(O)C2)n1 (stereo not drawn) [Example D007, N-(4-(2-(4-bromophenyl)but-3-yn-2-yl)thiazol-2-yl)-3-hydroxycyclobutanecarboxamide] | – | – | – | 55
31 | C#CC(CC)(c1ccc(Br)cc1)c1csc(NC(C)=O)n1 (stereo not drawn) [Example D008, N-(4-(3-(4-bromophenyl)pent-1-yn-3-yl)thiazol-2-yl)acetamide] | – | – | – | 143
